Structures can show the parent of a compound that is named as a salt.

Common to all, as to type: biochemical
For one experiment, the target named is LOXL2 (Homo sapiens (Human), UniProt Q9Y4K0). Nature of the experiment: LOXL2 inhibition, Amplex Red oxidation assay. The note with it: 30 min preincubation at 37 °C, putrescine substrate. The source says:
(§1) Lysyl oxidase (LOX) is an extracellular copper dependent enzyme which oxidizes peptidyl lysine and hydroxylysine residues in collagen and lysine residues in elastin to produce peptidyl alpha-aminoadipic-delta-semialdehydes. […] There are five LOX family members; these are LOX, LOXL1, LOXL2, LOXL3 and LOXL4. LOX and LOXL family members can be acquired as recombinant active proteins from commercial sources, or extracted from animal tissues like bovine aorta, tendons, pig skin; or prepared from cell cultures. The inhibitory effects of the compounds of the present invention were tested against the given LOX-LOXL preparation using a method based on the detection of hydrogen peroxide with an Amplex Red oxidation assay (Zhou et al. A stable nonfluorescent derivative of resorufin for the fluorometric determination of trace hydrogen peroxide: applications in detecting the activity of phagocyte NADPH oxidase and other oxidases. Anal. Biochem. 1997; 253, 162-168). The assay was developed using either 384 or 96 well format. Briefly, in a standard black, clear bottom 384 well plate assay 25 μL of a dilution of any of the isoenzymes and orthologues in 1.2 M urea, 50 mM sodium borate buffer (pH 8.2) were added into each well in the presence of 1 μM mofegiline and 0.5 mM pargyline (to inhibit SSAO and MAO-B and MAO-A, respectively; not necessary if the enzyme is from a recombinant or purified form). Test compounds were dissolved in DMSO and tested in a Concentration Response Curve (CRC) with 11 data points, typically in the micromolar or nanomolar range after incubation with the enzyme for 30 min at 37° C. Twenty five μL of a reaction mixture containing twice the KM concentration of putrescine (Sigma Aldrich, e.g. 20 mM for LOX, or 10 mM for LOXL2 and LOXL3), 120 μM Amplex Red (Sigma Aldrich) and 1.5 U/mL horseradish peroxidase (Sigma Aldrich) prepared in 1.2 M urea, 50 mM sodium borate buffer (pH 8.2) were then added to the corresponding wells. The above volumes were doubled in the case of 96 wells plate. The fluorescence (RFU) was read every 2.5 min for 30 min at […] 37° C., excitation 565 nm and emission 590 (Optima; BMG labtech). The slope of the kinetics for each well was calculated using MARS data analysis software (BMG labtech) and this value was used to deduce the IC50 value (Dotmatics).

The target of the next experiment is Recombinant human MAO-B (Homo sapiens (Human), UniProt P27338). Briefly: Inhibition of human recombinant MAO-B. The note with it: benzylamine 100 μM. As to the method:
The specificity of the compounds of this invention was tested by determining their ability to inhibit MAO-B activities in vitro. Recombinant human MAO-B (0.06 mg/mL; Sigma Aldrich) was used as source of MAO-B enzyme activities. The assay was performed in a similar way as for human SSAO/VAP-1 (Example 28) except, the substrate benzylamine was used at 100 μM.

The target of a further experiment is Bovine LOX (Bos taurus (Bovine), UniProt P33072). Briefly: LOX inhibition, Amplex Red oxidation assay. The note with it: 30 min preincubation at 37 °C, putrescine substrate.
Sequence of Bovine LOX (P33072 170-418): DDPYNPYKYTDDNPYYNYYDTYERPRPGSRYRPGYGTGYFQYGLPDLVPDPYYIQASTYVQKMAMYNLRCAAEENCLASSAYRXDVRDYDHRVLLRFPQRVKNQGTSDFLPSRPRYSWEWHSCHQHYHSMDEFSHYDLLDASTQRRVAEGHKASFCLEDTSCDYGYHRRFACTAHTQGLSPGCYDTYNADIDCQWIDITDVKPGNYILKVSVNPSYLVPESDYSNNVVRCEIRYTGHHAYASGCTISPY
Text: as §1, with “Test compounds were dissolved in DMSO and tested in a Concentration Response Curve (CRC) with 11 data points, typically in the micromolar or nanomolar range after incubation with the enzyme for 30 min at 37° C.” left out

Experiment [1] has as its target Human recombinant SSAO/VAP-1 (Homo sapiens (Human), UniProt Q16853). Nature of the experiment: Inhibition of human recombinant SSAO/VAP-1. The settings on record: 30 min preincubation at 37 °C, benzylamine 600 μM; read-out: SSAO/VAP-1 Activity IC50. The protocol: Human recombinant SSAO/VAP-1 amine oxidase activity was determined using the coupled colorimetric method as described for monoamine oxidase, copper-containing amine oxidases and related enzymes (Holt A. and Palcic M., A peroxidase-coupled continuous absorbance plate-reader assay for flavin monoamine oxidases, copper-containing amine oxidases and related enzymes. Nat Protoc 2006; 1: 2498-2505). Briefly, a cloned cDNA template corresponding to residues 34-763 of human SSAO/VAP-1, and incorporating a mouse Ig kappa (κ) signal sequence, N-terminal flag epitope tag and tobacco etch virus (TEV) cleavage site, was assembled in a mammalian expression vector (pLO-CMV) by Geneart AG. This vector containing human SSAO/VAP-1 residues was transfected into CHO-Kl glycosylation mutant cell line, Lec 8. A clone stably expressing human SSAO/VAP-1 was isolated and cultured in large scale. Active human SSAO/VAP-1 was purified and recovered using immunoaffinity chromatography. This was used as the source for SSAO/VAP-1 activity. A high-throughput colorimetric assay was developed using either 96 or 384 well format. Briefly, in a standard 96 well plate assay 50 μL of purified human SSAO/VAP-1 (0.25 μg/mL) in 0.1 M sodium phosphate buffer (pH 7.4) was added into each well. Test compounds were dissolved in DMSO and tested in a Concentration Response Curve (CRC) with 4-11 data points, typically in the micromolar or nanomolar range after incubation with human SSAO/VAP-1 for 30 min at 37° C. After 30 min incubation, 50 μL of the reaction mixture containing 600 μM benzylamine (Sigma Aldrich), 120 μM Amplex Red (Sigma Aldrich) and 1.5 U/mL horseradish peroxidase (Sigma Aldrich) prepared in 0.1 M sodium phosphate buffer (pH 7.4) were added to the corresponding well. The fluorescence unit (RFU) was read every 2.5 min for 30 min at 37° C. excitation 565 nm and emission 590 (Optima; BMG labtech). The slope of the kinetics for each well was calculated using MARS data analysis software (BMG labtech) and this value was used to deduce the IC50 value (Dotmatics).

A further experiment addresses LOXL1 (Homo sapiens (Human), UniProt Q08397). Nature of the experiment: Jump dilution experiment, sustained inhibition of LOXL1.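 Further: 30× IC50 used only where needed so inhibitor exceeds enzyme concentration.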 The note with it: jump dilution after 40 min at 37 °C with 10× or 30× IC50; vs non-inhibited controls. As to the method: Jump Dilution experiment: The assay was developed using a 96 well format and the starting enzyme concentration was set 100 times higher than for the inhibition studies. […] After the incubation, the mixture was diluted 50× in assay buffer, followed by a further 2× dilution in Amplex Red-horseradish peroxidase-putrescine reaction mix (same as per the inhibition studies) prior to the fluorescent measurement. Results were expressed in % recovery of the signal after a specified time by comparison with non-inhibited controls.

Sequence of Recombinant human MAO-B (P27338 whole entry): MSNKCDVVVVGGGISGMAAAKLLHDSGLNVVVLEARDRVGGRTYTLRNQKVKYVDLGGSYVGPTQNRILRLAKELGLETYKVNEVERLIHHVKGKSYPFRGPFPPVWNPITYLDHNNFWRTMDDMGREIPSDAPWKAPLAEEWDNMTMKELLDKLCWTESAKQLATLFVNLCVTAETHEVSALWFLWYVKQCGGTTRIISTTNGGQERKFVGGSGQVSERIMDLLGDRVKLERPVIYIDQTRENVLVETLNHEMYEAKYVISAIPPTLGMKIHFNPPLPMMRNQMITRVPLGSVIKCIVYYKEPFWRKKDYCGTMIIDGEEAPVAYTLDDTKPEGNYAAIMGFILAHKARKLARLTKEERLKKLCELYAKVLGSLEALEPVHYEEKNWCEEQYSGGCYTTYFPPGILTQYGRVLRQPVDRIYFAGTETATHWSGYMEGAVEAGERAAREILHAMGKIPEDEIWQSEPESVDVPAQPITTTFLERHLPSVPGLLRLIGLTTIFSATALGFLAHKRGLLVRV
Sequence of LOXL1 (Q08397 96-574, species assumed): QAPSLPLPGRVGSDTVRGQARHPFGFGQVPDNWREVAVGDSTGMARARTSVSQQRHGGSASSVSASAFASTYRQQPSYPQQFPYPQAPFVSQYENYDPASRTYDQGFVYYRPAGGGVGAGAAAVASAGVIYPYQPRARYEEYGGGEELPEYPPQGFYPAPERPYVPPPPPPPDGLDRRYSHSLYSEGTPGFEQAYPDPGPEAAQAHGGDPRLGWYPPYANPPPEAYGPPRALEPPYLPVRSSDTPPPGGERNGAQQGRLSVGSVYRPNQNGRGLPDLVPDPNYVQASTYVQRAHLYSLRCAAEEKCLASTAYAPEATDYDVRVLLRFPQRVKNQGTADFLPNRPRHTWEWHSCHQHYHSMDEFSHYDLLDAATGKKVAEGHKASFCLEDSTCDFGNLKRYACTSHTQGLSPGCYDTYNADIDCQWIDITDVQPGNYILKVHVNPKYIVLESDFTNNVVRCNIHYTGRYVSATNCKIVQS
Sequence of Human recombinant SSAO/VAP-1 (Q16853 34-763): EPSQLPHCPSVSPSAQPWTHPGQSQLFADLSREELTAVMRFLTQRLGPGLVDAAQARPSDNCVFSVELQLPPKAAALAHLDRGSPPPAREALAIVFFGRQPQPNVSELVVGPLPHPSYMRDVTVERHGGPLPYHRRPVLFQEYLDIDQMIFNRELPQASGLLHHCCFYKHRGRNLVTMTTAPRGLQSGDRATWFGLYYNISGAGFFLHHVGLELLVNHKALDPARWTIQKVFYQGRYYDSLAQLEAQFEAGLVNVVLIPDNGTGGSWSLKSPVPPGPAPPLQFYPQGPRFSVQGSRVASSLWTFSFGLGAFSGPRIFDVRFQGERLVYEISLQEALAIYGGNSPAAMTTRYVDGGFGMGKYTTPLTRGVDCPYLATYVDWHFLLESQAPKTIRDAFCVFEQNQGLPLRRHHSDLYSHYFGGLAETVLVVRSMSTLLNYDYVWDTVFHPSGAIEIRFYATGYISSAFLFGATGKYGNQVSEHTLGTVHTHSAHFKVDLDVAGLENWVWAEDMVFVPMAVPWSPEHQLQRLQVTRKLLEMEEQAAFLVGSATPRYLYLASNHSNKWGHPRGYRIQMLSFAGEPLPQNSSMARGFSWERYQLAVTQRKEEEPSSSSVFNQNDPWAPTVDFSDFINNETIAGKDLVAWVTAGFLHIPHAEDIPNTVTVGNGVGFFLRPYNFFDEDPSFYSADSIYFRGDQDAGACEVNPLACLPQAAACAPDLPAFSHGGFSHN
Sequence of LOXL2 (Q9Y4K0 26-774): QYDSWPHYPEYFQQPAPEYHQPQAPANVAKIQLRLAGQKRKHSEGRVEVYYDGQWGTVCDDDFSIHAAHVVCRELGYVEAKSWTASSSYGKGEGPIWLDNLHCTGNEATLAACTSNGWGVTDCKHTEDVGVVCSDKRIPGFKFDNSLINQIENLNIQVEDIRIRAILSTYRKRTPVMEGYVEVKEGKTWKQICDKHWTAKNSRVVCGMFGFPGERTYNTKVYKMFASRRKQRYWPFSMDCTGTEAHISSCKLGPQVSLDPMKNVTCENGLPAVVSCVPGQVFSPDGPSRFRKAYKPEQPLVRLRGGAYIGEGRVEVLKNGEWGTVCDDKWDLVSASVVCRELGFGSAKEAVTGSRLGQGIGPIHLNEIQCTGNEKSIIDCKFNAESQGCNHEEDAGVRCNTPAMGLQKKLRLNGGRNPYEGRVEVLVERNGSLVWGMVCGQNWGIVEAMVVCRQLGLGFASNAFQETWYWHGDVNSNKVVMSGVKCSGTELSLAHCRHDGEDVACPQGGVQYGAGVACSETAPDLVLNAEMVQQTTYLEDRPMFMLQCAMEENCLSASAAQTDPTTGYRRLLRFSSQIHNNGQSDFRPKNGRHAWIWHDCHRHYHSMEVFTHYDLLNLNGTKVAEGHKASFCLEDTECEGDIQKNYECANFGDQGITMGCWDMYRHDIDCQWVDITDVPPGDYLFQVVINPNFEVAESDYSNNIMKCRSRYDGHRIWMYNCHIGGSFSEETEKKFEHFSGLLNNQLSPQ

As for `NC/C=C(\F)CS(=O)(=O)c1cc(C(F)(F)F)cc(C(F)(F)F)c1` [Compound 2, (Z)-4-((3,5-bis(trifluoromethyl)phenyl)sulfonyl)-3-fluorobut-2-en-1-amine hydrochloride], the IC50 at LOXL2 was under 10 µM; at Recombinant human MAO-B, over 30 µM; at Bovine LOX, under 10 µM; in experiment [1], over 30 µM.
Turning to `CS(=O)(=O)c1ccc(S(=O)(=O)C/C(F)=C/CN)cc1` [Compound 3, (Z)-3-fluoro-4-((4-(methylsulfonyl)phenyl)sulfonyl)but-2-en-1-amine], the IC50 is under 10 µM against LOXL2, over 30 µM on Recombinant human MAO-B, under 10 µM against Bovine LOX and over 30 µM in experiment [1].
Regarding `NC/C=C(\F)CS(=O)(=O)c1ccccc1OCc1ccccc1` [Compound 7, (Z)-4-((2-(benzyloxy)phenyl)sulfonyl)-3-fluorobut-2-en-1-amine hydrochloride], the IC50 at LOXL2 is under 1 µM; at Recombinant human MAO-B, over 30 µM; against Bovine LOX, under 10 µM; in experiment [1] it was over 30 µM. Moreover, the “LOXL1 - Recovery of activity. (%)” value at LOXL1 stood at 3.0%.
As to `NC/C=C(\F)CS(=O)(=O)c1ccccc1OCc1ccc(S(N)(=O)=O)cc1` [Compound 8, (Z)-4-((2-((4-amino-2-fluorobut-2-en-1-yl)sulfonyl)phenoxy)methyl)benzenesulfonamide hydrochloride], the IC50 at LOXL2 was under 1 µM; at Recombinant human MAO-B it was over 30 µM; against Bovine LOX, under 1 µM; in experiment [1], over 30 µM. The “LOXL1 - Recovery of activity. (%)” value at LOXL1 is on record as 35.1%.
For the molecule `NC/C=C(\F)CS(=O)(=O)c1cccc2ccccc12` [Compound 23, (Z)-3-fluoro-4-(naphthalen-1-ylsulfonyl)but-2-en-1-amine hydrochloride], the figures for the IC50 (at LOXL2; against Bovine LOX; in experiment [1]) were under 1 µM, under 10 µM and over 30 µM, respectively.
`NC/C=C(\F)CS(=O)(=O)c1cc(Cl)cc(Cl)c1` [Compound 28, (Z)-4-(3,5-dichlorophenylsulfonyl)-3-fluorobut-2-en-1-amine hydrochloride]: the IC50 was under 1 µM at LOXL2, under 10 µM against Bovine LOX and over 30 µM in experiment [1].
Regarding `NC/C=C(\F)CS(=O)(=O)c1ccncc1` [Compound 29, (Z)-3-fluoro-4-(pyridin-4-ylsulfonyl)but-2-en-1-amine dihydrochloride], the IC50 is under 1 µM on LOXL2 and under 10 µM at Bovine LOX. Besides, the “LOXL1 - Recovery of activity. (%)” value on LOXL1 came to 8.6%.
Turning to `NC/C=C(\F)CS(=O)(=O)c1ccccn1` [Compound 30, (Z)-3-fluoro-4-(pyridin-2-ylsulfonyl)but-2-en-1-amine dihydrochloride], the IC50 on LOXL2 is under 1 µM; against Bovine LOX, under 10 µM. Moreover, the “LOXL1 - Recovery of activity. (%)” value at LOXL1 is 1.9%.
`NC/C=C(\F)CS(=O)(=O)c1ccc2ccccc2n1` [Compound 32, (Z)-3-fluoro-4-(quinolin-2-ylsulfonyl)but-2-en-1-amine dihydrochloride]: the IC50 against LOXL2 is under 1 µM; on Recombinant human MAO-B it was over 30 µM; against Bovine LOX, under 10 µM.
On to `NC/C=C(\F)CS(=O)(=O)c1cccc(F)c1` [Compound 38, (Z)-3-fluoro-4-(3-fluorophenylsulfonyl)but-2-en-1-amine hydrochloride], for which the IC50 is under 1 µM against LOXL2 and under 10 µM on Bovine LOX. For the same molecule, the “LOXL1 - Recovery of activity. (%)” value on LOXL1 amounted to 1.6%.
`CC(C)c1ncccc1S(=O)(=O)C/C(F)=C/CN` [Compound 45, (Z)-3-fluoro-4-(2-isopropylpyridin-3-ylsulfonyl)but-2-en-1-amine dihydrochloride]: the IC50 at LOXL2 was under 1 µM; on Bovine LOX, under 10 µM; in experiment [1], over 30 µM. Besides, the “LOXL1 - Recovery of activity. (%)” value at LOXL1 is on record as 6.6%.
As to `Cc1ccc(S(=O)(=O)C/C(F)=C/CN)cn1` [Compound 46, (Z)-3-fluoro-4-(6-methylpyridin-3-ylsulfonyl)but-2-en-1-amine dihydrochloride], the IC50 against LOXL2 was under 1 µM; against Bovine LOX, under 10 µM. Moreover, the “LOXL1 - Recovery of activity. (%)” value on LOXL1 was found to be 1.0%.
Turning to `Cc1nc2c(S(=O)(=O)C/C(F)=C/CN)cccc2s1` [Compound 50, (Z)-3-fluoro-4-((2-methylbenzo[d]thiazol-4-yl)sulfonyl)but-2-en-1-amine hydrochloride], the IC50 on LOXL2 was under 1 µM; against Bovine LOX, under 10 µM; in experiment [1] it was over 30 µM.
Consider `NC/C=C(\F)CS(=O)(=O)c1cccc2cc(F)cnc12` [Compound 51, (Z)-3-fluoro-4-((3-fluoroquinolin-8-yl)sulfonyl)but-2-en-1-amine dihydrochloride], for which the IC50 against LOXL2 was under 1 µM; at Recombinant human MAO-B, over 30 µM; against Bovine LOX, under 10 µM; in experiment [1], over 10 µM.

Source of the values: patent US12178791B2, “Haloallylamine sulfone derivative inhibitors of lysyl oxidases and uses thereof” (Syntara Limited, priority 2018, dated 2024).
